The NIST ThermoML archive (doi:10.1021/je0501890)

Experiment: xn = mol fraction of the nth substance listed
Conditions: 101.33 kPa, Liquid

CCCCCCCO [heptan-1-ol] + ClCCCl
Conditions | mass density, 293.15 K [kg/m3] | mass density, 298.15 K [kg/m3] | mass density, 303.15 K [kg/m3] | viscosity, 293.15 K [mPa·s] | viscosity, 298.15 K [mPa·s] | viscosity, 303.15 K [mPa·s]
x1 = 0.0502 | 1213.23 | 1206.24 | 1199.3 | – | – | –
x1 = 0.1023 | – | – | – | 0.922 | 0.851 | 0.796
x1 = 0.1024 | 1175.9 | 1169.21 | 1162.55 | – | – | –
x1 = 0.1493 | 1145.01 | 1138.62 | 1132.15 | – | – | –
x1 = 0.2009 | – | – | – | 1.104 | 1.006 | 0.928
x1 = 0.2511 | 1085.65 | 1079.74 | 1073.87 | – | – | –
x1 = 0.2957 | – | – | – | 1.342 | 1.215 | 1.105
x1 = 0.3445 | 1038.38 | 1032.88 | 1027.38 | – | – | –
x1 = 0.3465 | – | – | – | 1.501 | 1.353 | 1.227
x1 = 0.3896 | 1017.38 | 1012.13 | 1006.83 | – | – | –
x1 = 0.4198 | 1004.18 | 999.04 | 993.91 | – | – | –
x1 = 0.455 | 989.42 | 984.4 | 979.35 | – | – | –
x1 = 0.4616 | – | – | – | 1.939 | 1.732 | 1.546
x1 = 0.5017 | 970.85 | 966 | 961.14 | – | – | –
x1 = 0.5035 | – | – | – | 2.139 | 1.901 | 1.699
x1 = 0.5437 | – | – | – | 2.355 | 2.079 | 1.844
x1 = 0.551 | 952.41 | 947.76 | 943.04 | – | – | –
x1 = 0.5998 | – | – | – | 2.703 | 2.367 | 2.089
x1 = 0.6036 | 933.66 | 929.17 | 924.63 | – | – | –
x1 = 0.6481 | 918.87 | 914.5 | 910.13 | – | – | –
x1 = 0.6602 | 914.96 | 910.61 | 906.29 | – | – | –
x1 = 0.6956 | 903.77 | 899.55 | 895.28 | – | – | –
x1 = 0.6972 | – | – | – | 3.412 | 2.955 | 2.583
x1 = 0.7475 | – | – | – | 3.887 | 3.354 | 2.905
x1 = 0.748 | 887.98 | 883.88 | 879.79 | – | – | –
x1 = 0.7974 | 873.84 | 869.91 | 865.91 | – | – | –
x1 = 0.7978 | – | – | – | 4.397 | 3.773 | 3.253
x1 = 0.8548 | 858.28 | 854.47 | 850.61 | – | – | –
x1 = 0.8862 | – | – | – | 5.474 | 4.65 | 3.979
x1 = 0.8898 | 849.21 | 845.44 | 841.7 | – | – | –
x1 = 0.9489 | 834.67 | 831.05 | 827.43 | – | – | –
